Results reported in ChEMBL document CHEMBL1145804, “Synthesis and characterization of the first fluorescent antagonists for human 5-HT4 receptors” (J Med Chem, 2003).
pKi: −log10 of the molar value.

Tests used:
[1] = biological target: T1, 5-hydroxytryptamine receptor 4 (Homo sapiens, UniProt Q13639); assay: Binding affinity towards cloned human 5-hydroxytryptamine 4E receptor expressed in C6 glial cells using [3H]GR-113808 as radioligand; type: cell-based
[2] = biological target: T1, 5-hydroxytryptamine receptor 4; assay: Antagonist activity (inhibition of 5-HT-stimulated cAMP synthesis) of compound at cloned human 5-hydroxytryptamine 4E receptor expressed in C6 glial cells by Schild analysis

T1 sequence (Q13639 whole entry): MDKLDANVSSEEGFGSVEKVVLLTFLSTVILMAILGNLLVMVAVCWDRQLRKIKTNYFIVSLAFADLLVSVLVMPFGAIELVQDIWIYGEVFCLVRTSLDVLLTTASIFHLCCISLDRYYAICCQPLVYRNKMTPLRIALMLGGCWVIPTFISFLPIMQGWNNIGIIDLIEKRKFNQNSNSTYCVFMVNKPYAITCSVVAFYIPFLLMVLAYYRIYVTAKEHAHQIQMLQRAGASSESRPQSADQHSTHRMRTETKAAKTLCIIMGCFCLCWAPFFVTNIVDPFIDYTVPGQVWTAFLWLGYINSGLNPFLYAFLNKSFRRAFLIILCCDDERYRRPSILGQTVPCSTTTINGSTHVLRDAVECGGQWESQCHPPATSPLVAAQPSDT

SMILES | pKi [1] | Kb [2] [µM]
COc1cc(N)c(Cl)cc1C(=O)OCCN1CCC(CCNS(=O)(=O)c2cccc3c(N(C)C)cccc23)CC1 | 7.11 | 
COc1cc(N)c(Cl)cc1C(=O)OCCN1CCC(CCCNS(=O)(=O)c2cccc3c(N(C)C)cccc23)CC1 | 7.49 | 
COc1cc(N)c(Cl)cc1C(=O)OCCN1CCN(C(=O)CNS(=O)(=O)c2cccc3c(N(C)C)cccc23)CC1 | 5.76 | 
COc1cc(N)c(Cl)cc1C(=O)OCCN1CCC(CN2C(=O)c3cccc4c(N)ccc(c34)C2=O)CC1 | 7.19 | 0.009
COc1cc(N)c(Cl)cc1C(=O)OCCN1CCC(CN2C(=O)c3cccc4c(N(C)C)ccc(c34)C2=O)CC1 | 6.74 | 
COc1cc(N)c(Cl)cc1C(=O)OCCN1CCN(C(=O)CCCNS(=O)(=O)c2cccc3c(N(C)C)cccc23)CC1 | 6.74 | 
COc1cc(N)c(Cl)cc1C(=O)OCCN1CCC(CNS(=O)(=O)c2cccc3c(N(C)C)cccc23)CC1 | 8.15 | 0.0057
COc1cc(N)c(Cl)cc1C(=O)OCCN1CCC(CNc2ccc([N+](=O)[O-])c3nonc23)CC1 |  | 0.0021
COc1cc(N)c(Cl)cc1C(=O)OCCN1CCC(CCCCNS(=O)(=O)c2cccc3c(N(C)C)cccc23)CC1 | 7.62 | 
COc1cc(N)c(Cl)cc1C(=O)OCCN1CCC(CCCCN2C(=O)c3cccc4c(N(C)C)ccc(c34)C2=O)CC1 | 7.23 | 
COc1cc(N)c(Cl)cc1C(=O)OCCN1CCN(C(=O)CCCCCCCCCCNS(=O)(=O)c2cccc3c(N(C)C)cccc23)CC1 | 7.02 | 
COc1cc(N)c(Cl)cc1C(=O)OCCN1CCC(NS(=O)(=O)c2cccc3c(N(C)C)cccc23)CC1 | 6.58 | 
COc1cc(N)c(Cl)cc1C(=O)OCCN1CCN(C(=O)CCCCCCCNS(=O)(=O)c2cccc3c(N(C)C)cccc23)CC1 | 7.51 | 
COc1cc(N)c(Cl)cc1C(=O)OCCN1CCC(CNc2ccc([N+](=O)[O-])c3n[o+][n-]c23)CC1 | 8.12 | 
COc1cc(N)c(Cl)cc1C(=O)OCCN1CCN(C(=O)CCCCCNS(=O)(=O)c2cccc3c(N(C)C)cccc23)CC1 | 6.74 | 
COc1cc(N)c(Cl)cc1C(=O)OCCN1CCN(C(=O)CCNS(=O)(=O)c2cccc3c(N(C)C)cccc23)CC1 | 6.94 | 
